# Measurements from patent publication US20150087616A1, “PREBIOTIC FORMULATIONS AND METHODS OF USE” (RITTER PHARMACEUTICALS, INC., priority 2011, published 2015).
# Test system: Bifidobacterium species
# Experiment: Comparative growth of Bifidobacterium species in scratch MRS with 2% carbohydrate
# Assay type: cell-based
# Details: five (four) Bifidobacterium species; scratch MRS + 2% carbohydrate
# Experimental: The objective of the study was to determine the ability of various Bifidobacterium species and strains to grow on galactooligosaccharides.
# The growth of Lactobacillus and Bifidobacterium strains was evaluated in scratch MRS (Table 16) supplemented with 2% of a carbohydrate solution. The carbohydrates used in the experiments were: Glucose—Fisher; Lactose—Fisher; GOS1—95% GOS purity from Inalco SPA—Provided by Ritter Pharmaceuticals; GOS2—90% GOS purity from GTC—provided by Ritter Pharmaceuticals.
# Carbohydrate stock solutions were filter sterilized and then added to either a scratch MRS formulation (Table 16), or a semisynthetic medium (Table 17).
# Lactobacillus and Bifidobacterium cultures were propagated in MRS broth overnight, and then transferred once through the test medium. For growth experiments, cultures were inoculated into the MRS scratch medium containing one of the 4 carbohydrates to be examined Growth was monitored either: **automatically, using a FLUOStar OPTIMA microtiter plate reader to monitor the change in absorbance (A600) as a function of the time. The strains were incubated at 37 C aerobically for these experiments; or ** manually, using a standard spectrophotometer to monitor the change in OD600 nm over time, in 5 ml liquid culture tubes. These cultures were incubated anaerobically at 37° C. in a COY anaerobic chamber, flushed with anaerobic gas. […]
smiles,measurement,value
"OC[C@H]1O[C@@H](O[C@H]2[C@H](O)[C@@H](O)C(O)O[C@@H]2CO)[C@H](O)[C@@H](O)[C@H]1O (stereo partly shown) [lactose, Lactose]","comparative growth on four carbohydrate sources (glucose, lactose, GOS1, GOS2)",none of the Bifidobacterium strains used in these experiments grew
